Structures are written as SMILES. Where only a bound is given, the exact number is not on record here.

This experiment deals with T1, G1 APOL1 (Homo sapiens, UniProt O14791, I384M/S342G).
T1 construct: expressed in transfected cells
T1 sequence (O14791 28-398 S342G/I384M): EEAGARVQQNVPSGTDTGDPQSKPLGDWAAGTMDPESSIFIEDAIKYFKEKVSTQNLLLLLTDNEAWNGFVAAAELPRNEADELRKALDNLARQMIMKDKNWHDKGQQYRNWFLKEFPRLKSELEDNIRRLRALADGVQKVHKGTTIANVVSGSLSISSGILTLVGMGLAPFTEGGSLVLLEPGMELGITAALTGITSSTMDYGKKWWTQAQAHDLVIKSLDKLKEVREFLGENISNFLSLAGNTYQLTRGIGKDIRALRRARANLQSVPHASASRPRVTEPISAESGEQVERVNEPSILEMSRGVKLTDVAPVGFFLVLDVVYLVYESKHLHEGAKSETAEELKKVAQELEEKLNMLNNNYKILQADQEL
Kind of experiment: Acute APOL1 Thallium Assay with inducible stable clones of HEK 293 cells. It counts as cell-based. To be noted: HEK 293 T-Rex inducible stable clone expressing G1 APOL1; read-out: Thallium Assay (IC50). In outline:
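APOL1 pore function was measured as thallium influx, detected by a Tl+-sensitive fluorescent dye loaded as AM ester, on a FLIPR Tetra after Tl+ addition. Cells were HEK T-Rex G1 APOL1 clone DC3.25, 26,000 per well, induced with tetracycline at plating in Opti-MEM assay medium.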
By IC50 is commonly meant the concentration that gives 50% inhibition. Turning to `Fc1ccc(-c2[nH]c3c(F)cc(F)cc3c2C2CC(CNC3CCOC3)C2)cc1` (stereo not drawn) [Compound 396], the IC50 was over 1000 nM.

As for `OCC1(NCC2CC(c3c(-c4ccc(F)cc4)[nH]c4c(F)cc(F)cc34)C2)CC1` (stereo not drawn) [Compound 397], the concentration for half-maximal inhibition (IC50) was over 1000 nM. As for `Fc1ccc(-c2[nH]c3c(F)cc(F)cc3c2C2CC(CN[C@H]3CCOC3)C2)cc1` (stereo partly drawn) [Compound 398], the figure is over 1000 nM; as for `Cn1ccc(NCC2CC(c3c(-c4ccc(F)cc4)[nH]c4c(F)cc(F)cc34)C2)n1` (stereo not drawn) [Compound 399], over 1000 nM. `O=C1NCC[C@@H]1NCC1CC(c2c(-c3ccc(F)cc3)[nH]c3c(F)cc(F)cc23)C1` (stereo partly drawn) [Compound 400]: the half-inhibitory concentration (IC50) was over 1000 nM.

Take `CC(C)(C)OC(=O)NCCNCC1CC(c2c(-c3ccc(F)cc3)[nH]c3c(F)cc(F)cc23)C1` (stereo not drawn) [Compound 401]: the IC50 is over 1000 nM. Next, `CC(C)C(CO)NCC1CC(c2c(-c3ccc(F)cc3)[nH]c3c(F)cc(F)cc23)C1` (stereo not drawn) [Compound 402]: over 1000 nM.

On to `NCC(O)CNCC1CC(c2c(-c3ccc(F)cc3)[nH]c3c(F)cc(F)cc23)C1` (stereo not drawn) [Compound 403], for which the IC50 was over 1000 nM. Next, `CC1(NCC2CC(c3c(-c4ccc(F)cc4)[nH]c4c(F)cc(F)cc34)C2)COC1` (stereo not drawn) [Compound 404]: over 1000 nM; `Fc1ccc(-c2[nH]c3c(F)cc(F)cc3c2C2CC(CNCC3COC3)C2)cc1` (stereo not drawn) [Compound 405]: over 1000 nM. Take `OCC(CO)(CO)NCC1CC(c2c(-c3ccc(F)cc3)[nH]c3c(F)cc(F)cc23)C1` (stereo not drawn) [Compound 406]: the IC50 is over 1000 nM.

Take `CC(C)(CO)NCC1CC(c2c(-c3ccc(F)cc3)[nH]c3c(F)cc(F)cc23)C1` (stereo not drawn) [Compound 407]: the concentration for half-maximal inhibition (IC50) was over 1000 nM. As to `C[C@@H](O)[C@@H](CO)NCC1CC(c2c(-c3ccc(F)cc3)[nH]c3c(F)cc(F)cc23)C1` (stereo partly drawn) [Compound 408], the IC50 was over 1000 nM. As for `NCCCNCC1CC(c2c(-c3ccc(F)cc3)[nH]c3c(F)cc(F)cc23)C1` (stereo not drawn) [Compound 409], the figure is over 1000 nM; as for `O=C1CC(NCC2CC(c3c(-c4ccc(F)cc4)[nH]c4c(F)cc(F)cc34)C2)CN1` (stereo not drawn) [Compound 410], over 1000 nM. As for `CS(=O)(=O)NC[C@H]1C[C@H](c2c(-c3ccc(F)cc3)[nH]c3c(F)cc(F)cc32)C1` [Compound 412, N-(((1r,3r)-3-(5,7-difluoro-2-(4-fluorophenyl)-1H-indol-3-yl)cyclobutyl)methyl)methanesulfonamide], the IC50 lay in the range of 250 to 1000 nM. `CCS(=O)(=O)NC[C@H]1C[C@H](c2c(-c3ccc(F)cc3)[nH]c3c(F)cc(F)cc32)C1` [Compound 413]: the concentration for half-maximal inhibition (IC50) lay in the range of 250 to 1000 nM. As to `N#CCS(=O)(=O)NC[C@H]1C[C@H](c2c(-c3ccc(F)cc3)[nH]c3c(F)cc(F)cc32)C1` [Compound 414], the IC50 fell in the range of 250 to 1000 nM. Take `O=S(=O)(NC[C@H]1C[C@H](c2c(-c3ccc(F)cc3)[nH]c3c(F)cc(F)cc32)C1)c1c[nH]cn1` [Compound 415]: the 50% inhibitory concentration (IC50) was 250 to 1000 nM. Next, `O=S(=O)(NC[C@H]1C[C@H](c2c(-c3ccc(F)cc3)[nH]c3c(F)cc(F)cc32)C1)c1cn[nH]c1` [Compound 416]: over 1000 nM; `O=c1ccc2cc(S(=O)(=O)NC[C@H]3C[C@H](c4c(-c5ccc(F)cc5)[nH]c5c(F)cc(F)cc54)C3)ccc2[nH]1` [Compound 417]: over 1000 nM; `O=c1[nH]c2ccc(S(=O)(=O)NC[C@H]3C[C@H](c4c(-c5ccc(F)cc5)[nH]c5c(F)cc(F)cc54)C3)cc2[nH]1` [Compound 418]: over 1000 nM.

Consider `O=S(=O)(NC[C@H]1C[C@H](c2c(-c3ccc(F)cc3)[nH]c3c(F)cc(F)cc32)C1)c1n[nH]c2ncccc12` [Compound 419], for which the half-inhibitory concentration (IC50) was over 1000 nM. Next, `O=C1c2ccccc2C(=O)N1CCS(=O)(=O)NC[C@H]1C[C@H](c2c(-c3ccc(F)cc3)[nH]c3c(F)cc(F)cc32)C1` [Compound 420]: over 1000 nM.

These data come from patent publication US12281102B2, “Inhibitors of APOL1 and methods of using same” (Vertex Pharmaceuticals Incorporated, priority 2020, dated 2025).
